Data taken from ChEMBL document CHEMBL6096686, “Lanosterol 14α-Demethylase (CYP51)/Heat Shock Protein 90 (Hsp90) Dual Inhibitors for the Treatment of Invasive Candidiasis” (J Med Chem, 2025).
Values after ≈ are worked out from the molar mass of the structure shown. Active and inactive are the calls of the source. The calls are words filed in the database; no cut-off is given here.

How the values were obtained:
[1] = test system: Candida albicans; experiment: Antifungal activity against Candida albicans SC5314 incubated for 48 hrs by CLSI based liquid microdilution technique; type: functional
[2] = test system: Nakaseomyces glabratus; experiment: Antifungal activity against Candida glabrata 7804 incubated for 48 hrs by CLSI based liquid microdilution technique; type: functional
[3] = test system: Cryptococcus neoformans; experiment: Antifungal activity against Cryptococcus neoformans H99 incubated for 72 hrs by CLSI based liquid microdilution technique; type: functional
[4] = test system: Pichia kudriavzevii; experiment: Antifungal activity against Candida krusei 10153 incubated for 48 hrs by CLSI based liquid microdilution technique; type: functional
[5] = biological target: T1, Lanosterol 14-alpha demethylase (Candida albicans (strain SC5314 / ATCC MYA-2876) (Yeast), UniProt P10613); experiment: Inhibition of CYP51 in Candida albicans SC5314 assessed as accumulation of eburicol at 4 ug/ml measured after 48 hrs by GC-MS analysis; conditions: at 4 µg/mL
[6] = Cytotoxicity against HUVEC cells measured after 72 hrs by CCK8 assay; type: toxicity, cell-based; conditions: human
[7] = Cytotoxicity against human L02 cells measured after 72 hrs by CCK8 assay; type: toxicity, cell-based
[8] = biological target: T1, Lanosterol 14-alpha demethylase; experiment: Inhibition of CYP51 in Candida albicans SC5314 assessed as decrease in ERG26 mRNA level at 4 ug/ml measured after 24 hrs by real time RT-PCR analysis; conditions: at 4 µg/mL
[9] = biological target: T1, Lanosterol 14-alpha demethylase; experiment: Inhibition of CYP51 in Candida albicans SC5314 assessed as decrease in ERG27 mRNA level at 4 ug/ml measured after 24 hrs by real time RT-PCR analysis; conditions: at 4 µg/mL
[10] = biological target: T1, Lanosterol 14-alpha demethylase; experiment: Inhibition of CYP51 in Candida albicans SC5314 assessed as decrease in ERG6 mRNA level at 4 ug/ml measured after 24 hrs by real time RT-PCR analysis; conditions: at 4 µg/mL
[11] = biological target: T1, Lanosterol 14-alpha demethylase; experiment: Inhibition of CYP51 in Candida albicans SC5314 assessed as decrease in ERG3 mRNA level at 4 ug/ml measured after 24 hrs by real time RT-PCR analysis; conditions: at 4 µg/mL
[12] = biological target: Heat shock protein 90 homolog (Candida albicans (strain SC5314 / ATCC MYA-2876) (Yeast), UniProt P46598); experiment: Inhibition of HSP90 extracted from Candida albicans SC5314 lysate using FITC-Geldanamycin as substrate incubated for 6 hrs by fluorescence polarization assay; type: subcellular
[13] = test system: Candida albicans; experiment: Selectivity index, ratio of MIC80 antifungal activity against Candida albicans SC5314 to MIC80 for antifungal activity against Candida albicans SC5314 harboring HSP90 monoallelic knockout; type: functional
[14] = biological target: Heat shock protein HSP90 (Homo sapiens, UniProt P07900+P08238); experiment: Inhibition of human HSP90 using FITC-Geldanamycin as substrate incubated for 6 hrs by fluorescence polarization assay; type: protein assay
[15] = test system: Candida albicans; experiment: Antifungal activity against Candida albicans SC5314 harboring HSP90 monoallelic knockout incubated for 48 hrs by CLSI based liquid microdilution technique; type: functional
[16] = test system: Candida albicans; experiment: Antifungal activity against Candida albicans SC5314 assessed as fungal growth inhibition at 4 ug/ml incubated for 48 hrs; type: functional, organism-based; conditions: dose 4.0 µg/ml
[17] = test system: Candida albicans; experiment: Antifungal activity against Candida albicans SC5314 assessed as reduction in fungal growth at 8 ug/ml incubated for 48 hrs (reference value: 8.17 log10CFU/ml); type: functional; conditions: dose 8 µg/ml
[18] = test system: Candida albicans; experiment: Antifungal activity against Candida albicans SC5314 assessed as fungal growth inhibition incubated for 48 hrs by spot-plating method; type: functional, organism-based; conditions: dose 4-32 µg/ml
[19] = test system: Candida albicans; experiment: Antifungal activity against Candida albicans SC5314 assessed as fungal growth inhibition at 4 ug/ml incubated for 48 hrs by spot-plating method; type: functional, organism-based; conditions: dose 4.0 µg/ml
[20] = test system: Candida albicans; experiment: Antifungal activity against Candida albicans SC5314 assessed as fungal growth inhibition at 32 ug/ml incubated for 48 hrs by spot-plating method relative to control; type: functional
[21] = test system: Candida albicans; experiment: Inhibition of yeast to hypha transition in Candida albicans SC5314 at 4 ug/ml incubated for 2.5 hrs by inverted microscopy; type: functional, organism-based; conditions: dose 4.0 µg/ml
[22] = test system: Candida albicans; experiment: Inhibition of yeast to hypha transition in Candida albicans SC5314 at 8 ug/ml incubated for 2.5 hrs by inverted microscopy relative to control; type: functional
[23] = test system: Candida albicans; experiment: Inhibition of biofilm formation in Candida albicans SC5314 at 0.5 ug/ml incubated for 24 hrs by XTT reduction method relative to control; type: functional
[24] = test system: Candida albicans; experiment: Inhibition of biofilm formation in Candida albicans SC5314 at 4 ug/ml incubated for 24 hrs by XTT reduction method relative to control; type: functional
[25] = test system: Candida albicans; experiment: Inhibition of biofilm formation in Candida albicans SC5314 at 32 ug/ml incubated for 24 hrs by XTT reduction method relative to control; type: functional
[26] = test system: Candida albicans; experiment: Inhibition of biofilm formation in Candida albicans SC5314 incubated for 24 hrs by XTT reduction method; type: functional, organism-based; conditions: dose <= 32.0 µg/ml
[27] = test system: Candida albicans; experiment: Antifungal activity against Candida albicans SC5314 assessed as decrease in BCR1 mRNA level at 4 ug/ml measured after 24 hrs by real time RT-PCR analysis; type: functional, organism-based; conditions: dose 4.0 µg/ml
[28] = test system: Candida albicans; experiment: Antifungal activity against Candida albicans SC5314 assessed as decrease in EAP1 mRNA level at 4 ug/ml measured after 24 hrs by real time RT-PCR analysis; type: functional, organism-based; conditions: dose 4.0 µg/ml
[29] = test system: Candida albicans; experiment: Antifungal activity against Candida albicans SC5314 assessed as decrease in HWP1 mRNA level at 4 ug/ml measured after 24 hrs by real time RT-PCR analysis; type: functional, organism-based; conditions: dose 4.0 µg/ml
[30] = test system: Candida albicans; experiment: Antifungal activity against Candida albicans SC5314 assessed as decrease in ALS3 mRNA level at 4 ug/ml measured after 24 hrs by real time RT-PCR analysis; type: functional, organism-based; conditions: dose 4.0 µg/ml
[31] = test system: Candida albicans; experiment: Antifungal activity against Candida albicans SC5314 assessed as decrease in EFG1 mRNA level at 4 ug/ml measured after 24 hrs by real time RT-PCR analysis; type: functional, organism-based; conditions: dose 4.0 µg/ml
[32] = test system: Candida albicans; experiment: Antifungal activity against Candida albicans SC5314 assessed as decrease in CPH1 mRNA level at 4 ug/ml measured after 24 hrs by real time RT-PCR analysis; type: functional, organism-based; conditions: dose 4.0 µg/ml
[33] = test system: Candida albicans; experiment: Antifungal activity against Candida albicans SC5314 assessed as decrease in ACE2 mRNA level at 4 ug/ml measured after 24 hrs by real time RT-PCR analysis; type: functional, organism-based; conditions: dose 4.0 µg/ml
[34] = test system: Candida albicans; experiment: Antifungal activity against Candida albicans SC5314 assessed as decrease in TEC1 mRNA level at 4 ug/ml measured after 24 hrs by real time RT-PCR analysis; type: functional, organism-based; conditions: dose 4.0 µg/ml
[35] = test system: Candida albicans; experiment: Antifungal activity against Candida albicans SC5314 assessed as decrease in RLM1 mRNA level at 4 ug/ml measured after 24 hrs by real time RT-PCR analysis; type: functional, organism-based; conditions: dose 4.0 µg/ml
[36] = test system: Candida albicans; experiment: Antifungal activity against Candida albicans SC5314 assessed as decrease in ZAP1 mRNA level at 4 ug/ml measured after 24 hrs by real time RT-PCR analysis; type: functional, organism-based; conditions: dose 4.0 µg/ml
[37] = test system: Candida albicans; experiment: Antifungal activity against Candida albicans SC5314 infected in immunosuppressed ICR mouse assessed as reduction in fungal burden in kidney at 5 mg/kg, ip treated for 5 days consecutively (reference value: 6.71 log10CFU/ml); type: functional; conditions: time 5 day
[38] = test system: Candida albicans; experiment: Antifungal activity against Candida albicans SC5314 infected in immunosuppressed ICR mouse assessed as reduction in fungal burden in kidney at 10 mg/kg, ip treated for 5 days consecutively (reference value: 6.71 log10CFU/ml); type: functional; conditions: time 5 day
[39] = test system: Candida albicans; experiment: Antifungal activity against Candida albicans SC5314 infected in immunosuppressed ICR mouse assessed as reduction in fungal burden in kidney at 20 mg/kg, ip treated for 5 days consecutively (reference value: 6.71 log10CFU/ml); type: functional; conditions: time 5 day
[40] = test system: Candida albicans; experiment: Antifungal activity against Candida albicans SC5314 infected in immunosuppressed ICR mouse administered intraperitoneally treated for 5 days consecutively; type: functional, organism-based; conditions: dose 5-20 mg/kg, route ip, time 5.0 day

T1 sequence (P10613 whole entry): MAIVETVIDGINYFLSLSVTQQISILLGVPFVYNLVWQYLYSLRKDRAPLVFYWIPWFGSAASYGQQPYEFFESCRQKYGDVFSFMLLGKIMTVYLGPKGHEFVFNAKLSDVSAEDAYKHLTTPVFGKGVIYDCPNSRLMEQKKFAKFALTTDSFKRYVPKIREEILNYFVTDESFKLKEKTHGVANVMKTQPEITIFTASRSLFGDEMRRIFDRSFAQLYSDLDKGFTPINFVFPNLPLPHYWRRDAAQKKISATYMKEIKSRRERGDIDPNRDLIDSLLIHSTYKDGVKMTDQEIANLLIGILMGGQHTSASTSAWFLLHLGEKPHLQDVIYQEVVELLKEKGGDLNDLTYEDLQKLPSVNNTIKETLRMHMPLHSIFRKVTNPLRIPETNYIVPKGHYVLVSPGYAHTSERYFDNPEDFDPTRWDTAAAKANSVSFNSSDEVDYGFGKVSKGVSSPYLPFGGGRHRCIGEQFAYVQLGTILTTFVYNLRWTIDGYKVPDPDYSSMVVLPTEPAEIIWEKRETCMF
Chain of Heat shock protein 90 homolog (P46598 whole entry): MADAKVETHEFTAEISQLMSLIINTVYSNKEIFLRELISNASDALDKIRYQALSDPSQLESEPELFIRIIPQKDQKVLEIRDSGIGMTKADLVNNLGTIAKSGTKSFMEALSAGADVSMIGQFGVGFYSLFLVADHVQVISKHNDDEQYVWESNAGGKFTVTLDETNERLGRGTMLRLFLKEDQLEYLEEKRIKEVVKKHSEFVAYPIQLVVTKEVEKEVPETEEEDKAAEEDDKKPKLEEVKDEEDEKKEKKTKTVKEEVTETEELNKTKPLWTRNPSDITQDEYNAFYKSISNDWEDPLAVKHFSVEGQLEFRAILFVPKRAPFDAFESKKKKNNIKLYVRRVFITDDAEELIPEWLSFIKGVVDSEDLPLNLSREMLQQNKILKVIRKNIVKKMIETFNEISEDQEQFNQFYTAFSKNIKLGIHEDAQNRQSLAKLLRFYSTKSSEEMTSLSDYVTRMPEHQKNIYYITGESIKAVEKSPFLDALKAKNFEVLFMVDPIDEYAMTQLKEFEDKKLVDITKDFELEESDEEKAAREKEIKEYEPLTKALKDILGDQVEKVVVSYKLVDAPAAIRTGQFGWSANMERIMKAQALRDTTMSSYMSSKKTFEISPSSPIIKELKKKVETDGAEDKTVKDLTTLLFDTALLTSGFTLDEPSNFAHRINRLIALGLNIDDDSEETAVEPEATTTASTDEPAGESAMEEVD

CCNC(=O)c1noc(-c2cc(-c3ccc(C)cc3)c(O)cc2O)c1-c1ccc(CN2CCN(C(=O)CCCOc3ccc(CN(C)CC(O)(Cn4cncn4)c4ccc(F)cc4F)cc3)CC2)cc1 (stereo not drawn)
MIC80 [1]: 8 µg/mL (≈ 8.38 µM)
MIC80 [2]: 16 µg/mL (≈ 16.8 µM)
MIC80 [3]: 4 µg/mL (≈ 4.19 µM)
MIC80 [4]: > 64 µg/mL

OC(Cn1cncn1)(Cn1cncn1)c1ccc(F)cc1F [FLUCONAZOLE]
MIC80 [1]: 0.5 µg/mL (≈ 1.63 µM)
MIC80 [2]: 16 µg/mL (≈ 52.2 µM)
MIC80 [3]: 1 µg/mL (≈ 3.27 µM)
MIC80 [4]: 64 µg/mL (≈ 209 µM)
inhibition (INH) [5]: Active

CCN(C(=O)c1cc(-c2ccc(C)cc2)c(O)cc1O)c1ccc(CN2CCN(CC(O)(Cn3cncn3)c3ccc(F)cc3F)CC2)cc1 (stereo not drawn)
MIC80 [1]: 0.063 µg/mL (≈ 0.0923 µM)
MIC80 [2]: 8 µg/mL (≈ 11.7 µM)
MIC80 [3]: 4 µg/mL (≈ 5.86 µM)
MIC80 [4]: 16 µg/mL (≈ 23.4 µM)
IC50 at 72 h [6]: 2100 nM
IC50 at 72 h [7]: 2100 nM
inhibition (INH) [5]: Active
inhibition (INH) [8]: Active
inhibition (INH) [9]: Active
inhibition (INH) [10]: Active
inhibition (INH) [11]: Active
IC50 [12]: 740 nM
Ratio [13]: 16
IC50 [14]: 6630 nM
MIC80 [15]: 0.004 µg/mL (≈ 0.00586 µM)
inhibition [16]: Active; Activity Was Superior Than Flc
Activity [17]: 7.39 log10CFU/ml
inhibition [18]: Dose-dependent-effect
inhibition [19]: Active; Activity Was Superior Than Flc
inhibition at 32 µg/mL [20]: ~100%
inhibition [21]: Active; Inhibitory Effect Was Superior Than Flc
inhibition at 8 µg/mL [22]: 100%
inhibition at 0.5 µg/mL [23]: > 50%
inhibition at 4 µg/mL [24]: > 80%
inhibition at 32 µg/mL [25]: 100%
inhibition [26]: Dose-dependent-effect; Result Indicated That Compound Was More Potent Than Flc
Activity [27]: Active
Activity [28]: Active
Activity [29]: Active
Activity [30]: Active
Activity [31]: Active
Activity [32]: Active
Activity [33]: Active
Activity [34]: Active
Activity [35]: Active
Activity [36]: Active
Activity [37]: 6.14 log10CFU/ml
Activity [38]: 5.83 log10CFU/ml
Activity [39]: 5.47 log10CFU/ml
Activity [40]: Dose-dependent-effect

CCNC(=O)c1noc(-c2cc(-c3ccc(C)cc3)c(O)cc2O)c1-c1ccc(CN2CCN(C(=O)CCCCCOc3ccc(CN(C)CC(O)(Cn4cncn4)c4ccc(F)cc4F)cc3)CC2)cc1 (stereo not drawn)
MIC80 [1]: 4 µg/mL (≈ 4.07 µM)
MIC80 [2]: 16 µg/mL (≈ 16.3 µM)
MIC80 [3]: 4 µg/mL (≈ 4.07 µM)
MIC80 [4]: > 64 µg/mL
